Reference: patent US7262151B2, “Methods and compositions for production of lipo-chito oligosaccharides by rhizobacteria” (McGill University, priority 2001, dated 2007)
Read-outs that look alike come from different tables or passages of the source.

Key:
[1] = test system: nod genes in Bradyrhizobium japonicum strain USDA31; assay: nod gene induction, β-galactosidase assay, strain USDA31 (GG1); format: cell-based
Protocol: (§1) Bacteria were grown in yeast extract mannitol (YEM) medium (mannitol 10.0 g, K2HPO4 0.5 g, MgSO4.7H2O 0.2 g, NaCl 0.1 g, and yeast extract 0.4 g dissolved in 1000 mL of dd H2O). In order to ensure the maintenance of the strains, tetracycline was added to the bacterial cultures at a concentration of 20 mg 1^−1. One hundred mL cultures of each strain, in 250 mL flasks, were shaken at 150 rev min^−1 at 30° C. for 3-5 days and then subcultured into 400 mL of fresh medium in 1000 mL flasks. The cultures were incubated until the OD620 reached 0.2-0.3. The cultures were then divided into 5 mL tubes (sterilized).
(§2) Stock solutions of various inducers: genistein, salicylic acid and acetylsalicylic acid made in methanol and linolenic, linoleic, and jasmonic acid and methyl jasmonate were made in ethanol, and an appropriate amount of these inducers was added into the tubes before addition of bacterial culture. In the tubes, the final concentration of all the inducers was maintained as 5, 10, 25, 50 and 100 μM. Tubes were collected after 18 h of incubation and stored at −20° C. until the β-galactosidase activity was measured. Genistein (4′,5,7, trihydroxyisoflavone, purity 98%,), linolenic acid (9,12,15-Octadecatrienoic acid, purity 99%), linoleic acid (cis-9, cis-12-Octadecadienoic acid, purity 99%), jasmonic acid (±Jasmonic acid, C12H18O3) and salicylic acid (2-hydroxybenzoic acid, purity 99.0%) were obtained from Sigma, while acetylsalicylic acid (C9H8O4, 99% purity) was obtained from Acros and methyl jasmonate (95% purity) was obtained from Aldrich Chemical Company, Inc.
(§3) β-galactosidase is an enzyme which hydrolyzes β-D-galactosides. The activity of this enzyme can easily be measured with colorless substrates, which upon hydrolysis produce colored products. O-nitrophenyl-β-galactoside (ONPG) is a colorless compound and is converted to galactose and O-nitrophenol in the presence of β-galactosidase. The O-nitrophenol is yellow and can be measured by its absorption at 420 nm. In the present study, nod gene expression was indirectly measured by β-galactosidase activity following the method of Miller (1972) as modified by Stachel et al, (1985). Briefly, 0.5 mL culture was mixed with 2×Z buffer (Na2HPO4.7H2O, 16.1 g, NaH2PO4.H2O, 5.5 g, KCl 0.75 g, MgSO4.7H2O 0.246 g, β-mercaptoethanol 2.7 g, pH 7.0 dissolved in 500 mL water) and 40 μL toluene and vortexed for 10 seconds. The culture was then incubated in a water bath at 37° C. for 30 minutes and then 0.2 mL of O-nitrophenyl β-D-galactopyranoside (ONPG) was added at a concentration of 4 mg mL^−1. The cultures were incubated again in the water bath until the color of the culture changed. The reaction time was recorded and the reaction was stopped with 1M Na2CO3. After centrifugation at 10,000 rpm for 4 minutes, spectrophotometric reading at OD420 and OD600 were taken and the β-galactosidase activity was measured (β-galactosidase activity=OD420*1000/OD600*T*V, where T is the reaction time and V is the volume of the bacterial culture used for enzyme assay).
(§4) The effect of 0-100 μM concentrations of each of acetylsalicylic acid, salicylic acid, jasmonic acid, methyl jasmonate, and genistein, on induction of nod gene expression in Bradyrhizobium japonicum strains USDA31, USDA76, USDA121, and USDA3, was evaluated in accordance with the β-galactosidase assay of Experiment 1 in Example 1 above.

[2] = test system: nod genes in Bradyrhizobium japonicum strain USDA76; assay: nod gene induction, β-galactosidase assay, strain USDA 76 (GG2); format: cell-based; settings: control 411.8 ± 26.8
Protocol: as §1, §2, §3, §4

[3] = test system: nod genes in Bradyrhizobium japonicum strain USDA121; assay: nod gene induction, β-galactosidase assay, strain USDA121 (GG3); format: cell-based; settings: control 476.8 ± 86.6
Protocol: as §1, §2, §3, §4

[4] = test system: nod genes in Bradyrhizobium japonicum strain USDA3; format: cell-based; settings: for nod gene induction (β-galactosidase activity): USDA3 (GG4), control 362 ± 25; for expression of nod genes (β-galactosidase assay), in words: FIG. 1; for synergistic effect on β-galactosidase activity: simultaneous addition with genistein (5 μM), FIG. 2
Protocol: Bradyrhizobium japonicum strain USDA3, harboring plasmid GG4, was used in the experiment. Plasmid GG4 contains a translational fusion between B. japonicum nod Y open-reading frame and lac Z of Escherichia coli.
as §1, §2, §3
The experiment was designed in a randomized complete block design (RCBD) with three replicates. […] Data are shown from the second experiment. Statistical analysis of the data was done with analysis of variance using the Statistical Analysis System computer package (SAS Institute, 1988). Comparisons among treatment means were made with an ANOVA protected LSD at the 0.05 level of statistical significance.

[5] = test system: Rhizobium leguminasorum strain RBL 1284; settings: Rosas et al (1998); cited from earlier work
[6] = 5 μM, control without inducer 522.6 ± 15.9
[7] = concentrations from 25 to 100 μM

Question: Which “nod gene induction (β-galactosidase activity)” value [1, 6] does the source give for `CC/C=C\C[C@H]1C(=O)CC[C@@H]1CC(=O)O` [JA, [1R-[1α,2β(Z)]]-3-oxo-2-(pentenyl)cyclopentaneacetic acid] here?
Answer: 1653.3 ± 105.2

Question: And the “nod gene induction (β-galactosidase activity)” value ([1]; 10 μM, control 522.6 ± 15.9)?
Answer: 2079 ± 254.9

Question: What about the “nod gene induction (β-galactosidase activity)” value ([1]; 25 μM, control 522.6 ± 15.9) of the same molecule?
Answer: 1853.3 ± 314.5

Question: What about the “nod gene induction (β-galactosidase activity)” value ([1]; 50 μM, control 522.6 ± 15.9) of the same molecule?
Answer: 1884.3 ± 289.3

Question: What about the “nod gene induction (β-galactosidase activity)” value ([1]; 100 μM, control 522.6 ± 15.9) of the same molecule?
Answer: 796 ± 67.3

Question: What about the “nod gene induction (β-galactosidase activity)” value ([2]; 5 μM) of the same molecule?
Answer: 393.5 ± 30.5

Question: What about the “nod gene induction (β-galactosidase activity)” value ([2]; 10 μM) of the same molecule?
Answer: 447.9 ± 21

Question: What about the “nod gene induction (β-galactosidase activity)” value ([2]; 25 μM) of the same molecule?
Answer: 420.1 ± 4.6

Question: And the “nod gene induction (β-galactosidase activity)” value ([2]; 50 μM)?
Answer: 375.1 ± 35.3

Question: And the “nod gene induction (β-galactosidase activity)” value ([2]; 100 μM)?
Answer: 357.7 ± 9.7

Question: And the “nod gene induction (β-galactosidase activity)” value ([3]; 5 μM)?
Answer: 540.3 ± 79.3

Question: What about the “nod gene induction (β-galactosidase activity)” value ([3]; 10 μM) of the same molecule?
Answer: 473.7 ± 58.3

Question: What about the “nod gene induction (β-galactosidase activity)” value ([3]; 25 μM) of the same molecule?
Answer: 496 ± 49.2

Question: What about the “nod gene induction (β-galactosidase activity)” value ([3]; 50 μM) of the same molecule?
Answer: 412.7 ± 22.9

Question: What about the “nod gene induction (β-galactosidase activity)” value ([3]; 100 μM) of the same molecule?
Answer: 329.5 ± 19.3

Question: What about the “nod gene induction (β-galactosidase activity)” value ([4]; 5 μM) of the same molecule?
Answer: 368 ± 23

Question: And the “nod gene induction (β-galactosidase activity)” value ([4]; 10 μM)?
Answer: 362 ± 9

Question: And the “nod gene induction (β-galactosidase activity)” value ([4]; 25 μM)?
Answer: 3200 ± 230

Question: And the “nod gene induction (β-galactosidase activity)” value ([4]; 50 μM)?
Answer: 3900 ± 150

Question: And the “nod gene induction (β-galactosidase activity)” value ([4]; 100 μM)?
Answer: 550 ± 210

Question: What about the “expression of nod genes (β-galactosidase assay), in words” value ([4]; concentrations 10 μM or less) of the same molecule?
Answer: showed no activity

Question: And the “expression of nod genes (β-galactosidase assay), in words” value [4, 7]?
Answer: strongly induced the expression of nod genes

Question: What about the “synergistic effect on β-galactosidase activity” value [4] of the same molecule?
Answer: did not result in any synergistic effect

Question: What about the “expression of nod genes, in words” value [5] of the same molecule?
Answer: induced expression of nod genes

Question: For `O=c1c(-c2ccc(O)cc2)coc2cc(O)cc(O)c12` [GEN, 5,7,4′-trihydroxyisoflavone], which “nod gene induction (β-galactosidase activity)” value [1, 6] is on record?
Answer: 2283.8 ± 57.7

Question: And the “nod gene induction (β-galactosidase activity)” value ([1]; 10 μM, control 522.6 ± 15.9)?
Answer: 2007.6 ± 36.7

Question: What about the “nod gene induction (β-galactosidase activity)” value ([1]; 25 μM, control 522.6 ± 15.9) of the same molecule?
Answer: 1821 ± 89.2

Question: And the “nod gene induction (β-galactosidase activity)” value ([1]; 50 μM, control 522.6 ± 15.9)?
Answer: 1121.1 ± 156.9

Question: What about the “nod gene induction (β-galactosidase activity)” value ([1]; 100 μM, control 522.6 ± 15.9) of the same molecule?
Answer: 491.9 ± 31.6

Question: And the “nod gene induction (β-galactosidase activity)” value ([2]; 5 μM)?
Answer: 1421.7 ± 93.4

Question: What about the “nod gene induction (β-galactosidase activity)” value ([2]; 10 μM) of the same molecule?
Answer: 1320.8 ± 75.99

Question: And the “nod gene induction (β-galactosidase activity)” value ([2]; 25 μM)?
Answer: 1383.8 ± 98.22

Question: What about the “nod gene induction (β-galactosidase activity)” value ([2]; 50 μM) of the same molecule?
Answer: 1160.7 ± 89.7

Question: And the “nod gene induction (β-galactosidase activity)” value ([2]; 100 μM)?
Answer: 413.7 ± 7.4

Question: What about the “nod gene induction (β-galactosidase activity)” value ([3]; 5 μM) of the same molecule?
Answer: 2081.7 ± 148.5

Question: And the “nod gene induction (β-galactosidase activity)” value ([3]; 10 μM)?
Answer: 1685.1 ± 53.3

Question: What about the “nod gene induction (β-galactosidase activity)” value ([3]; 25 μM) of the same molecule?
Answer: 1286.8 ± 145.5

Question: And the “nod gene induction (β-galactosidase activity)” value ([3]; 50 μM)?
Answer: 1154.5 ± 121.1

Question: What about the “nod gene induction (β-galactosidase activity)” value ([3]; 100 μM) of the same molecule?
Answer: 430.9 ± 80.6

Question: What about the “nod gene induction (β-galactosidase activity)” value ([4]; 5 μM) of the same molecule?
Answer: 3304 ± 333

Question: And the “nod gene induction (β-galactosidase activity)” value ([4]; 10 μM)?
Answer: 2500 ± 94

Question: And the “nod gene induction (β-galactosidase activity)” value ([4]; 25 μM)?
Answer: 2300 ± 219

Question: What about the “nod gene induction (β-galactosidase activity)” value ([4]; 50 μM) of the same molecule?
Answer: 1930 ± 74

Question: What about the “nod gene induction (β-galactosidase activity)” value ([4]; 100 μM) of the same molecule?
Answer: 406 ± 15

Question: What about the “optimum concentration for nod gene induction” value ([4]; USDA3, β-galactosidase assay) of the same molecule?
Answer: 5 µM

Question: With `CC/C=C\CC1C(=O)CCC1CC(=O)OC` (stereo not drawn) [MeJA, methyl jasmonate] as the molecule, how does the “nod gene induction (β-galactosidase activity)” value [1, 6] read?
Answer: 472.2 ± 14.8

Question: What about the “nod gene induction (β-galactosidase activity)” value ([1]; 10 μM, control 522.6 ± 15.9) of the same molecule?
Answer: 485.3 ± 42.5

Question: What about the “nod gene induction (β-galactosidase activity)” value ([1]; 25 μM, control 522.6 ± 15.9) of the same molecule?
Answer: 403.3 ± 5.6

Question: What about the “nod gene induction (β-galactosidase activity)” value ([1]; 50 μM, control 522.6 ± 15.9) of the same molecule?
Answer: 500.1 ± 32

Question: What about the “nod gene induction (β-galactosidase activity)” value ([1]; 100 μM, control 522.6 ± 15.9) of the same molecule?
Answer: 392.9 ± 22.7

Question: What about the “nod gene induction (β-galactosidase activity)” value ([2]; 5 μM) of the same molecule?
Answer: 435.4 ± 39

Question: And the “nod gene induction (β-galactosidase activity)” value ([2]; 10 μM)?
Answer: 418.4 ± 53.1

Question: What about the “nod gene induction (β-galactosidase activity)” value ([2]; 25 μM) of the same molecule?
Answer: 392.7 ± 2.1

Question: What about the “nod gene induction (β-galactosidase activity)” value ([2]; 50 μM) of the same molecule?
Answer: 410.4 ± 24.5

Question: What about the “nod gene induction (β-galactosidase activity)” value ([2]; 100 μM) of the same molecule?
Answer: 386.4 ± 37.3

Question: What about the “nod gene induction (β-galactosidase activity)” value ([3]; 5 μM) of the same molecule?
Answer: 518 ± 42.6

Question: What about the “nod gene induction (β-galactosidase activity)” value ([3]; 10 μM) of the same molecule?
Answer: 487.1 ± 33

Question: What about the “nod gene induction (β-galactosidase activity)” value ([3]; 25 μM) of the same molecule?
Answer: 427 ± 29.4

Question: And the “nod gene induction (β-galactosidase activity)” value ([3]; 50 μM)?
Answer: 549.2 ± 81.6

Question: What about the “nod gene induction (β-galactosidase activity)” value ([3]; 100 μM) of the same molecule?
Answer: 487.9 ± 89.3

Question: And the “nod gene induction (β-galactosidase activity)” value ([4]; 5 μM)?
Answer: 448 ± 30

Question: And the “nod gene induction (β-galactosidase activity)” value ([4]; 10 μM)?
Answer: 500 ± 61

Question: What about the “nod gene induction (β-galactosidase activity)” value ([4]; 25 μM) of the same molecule?
Answer: 3000 ± 350

Question: And the “nod gene induction (β-galactosidase activity)” value ([4]; 50 μM)?
Answer: 4700 ± 450

Question: What about the “nod gene induction (β-galactosidase activity)” value ([4]; 100 μM) of the same molecule?
Answer: 4500 ± 400

Question: What about the “expression of nod genes (β-galactosidase assay), in words” value ([4]; concentrations 10 μM or less) of the same molecule?
Answer: showed no activity

Question: What about the “expression of nod genes (β-galactosidase assay), in words” value [4, 7] of the same molecule?
Answer: strongly induced the expression of nod genes

Question: What about the “synergistic effect on β-galactosidase activity” value [4] of the same molecule?
Answer: did not result in any synergistic effect

Question: What about the “expression of nod genes, in words” value [5] of the same molecule?
Answer: induced expression of nod genes
